The experiment concerns neuropathy model mice. Briefly: Von Frey filament stimulation test in streptozotocin-induced neuropathy animal model. Conditions: oral, 10, 20, 40 and 80 mg/kg in physiological saline; tested 1, 2, 3, 4 and 5 hours after administration; FIG. 1. The experiment is classed as in vivo, ICR mice. The procedure:
First, a neuropathy animal model was prepared by administering streptozocin. Specifically, streptozotocin was intraperitoneally administered to 4-week-old ICR mice at the concentration of 75 mg/kg. Five weeks after the administration, the expression of neuropathy was confirmed through the level of blood glucose and Von Frey filament stimulation tests, and the mice were used for the following experiments.
Specifically, trimethobenzamide was dissolved in physiological saline to prepare trimethobenzamide solutions with the concentrations of 10, 20, 40 and 80 mg/kg. The prepared trimethobenzamide solutions were orally administered to neuropathy model mice, and Von Frey filament stimulation test was performed 1, 2, 3, 4 and 5 hours after the administration to confirm the inhibitory effect on neuropathy.
Specifically, trimethobenzamide or tramadol was dissolved in physiological saline to prepare trimethobenzamide solution with the concentration of 60 mg/kg, or tramadol solution with the concentration of 20 mg/kg. After co-administration of the tramadol solution with the concentration of 20 mg/kg and the trimethobenzamide solution with the concentration of 20, 40 or 60 mg/kg solution, the effect of the co-administration was confirmed. […]

With `COc1cc(C(=O)NCc2ccc(OCCN(C)C)cc2)cc(OC)c1OC` [trimethobenzamide], the “inhibitory effect on neuropathy (pain), trimethobenzamide administered alone” value was “significant effect on the inhibition of neuropathy in a concentration-dependent manner”.

The values are drawn from patent US20220257542A1, “PHARMACEUTICAL COMPOSITION COMPRISING TRIMETHOBENZAMIDE OR PHARMACEUTICALLY ACCEPTABLE SALT THEREOF AS ACTIVE INGREDIENT FOR PREVENTING OR TREATING NEUROPATHIC PAIN” (FRONTBIO INC., priority 2019, published 2022).
